# Measured values from US11078188B2, “Dihydroquinoxaline bromodomain recognition protein inhibitor, preparation method and use thereof” (SHANGHAI INSTITUTE OF MATERIA MEDICA, CHINESE ACADEMY OF …, priority 2017, dated 2021).
# Experiments:
# 3A4 = 3A4 (Homo sapiens (Human), UniProt P08684); assay: Direct inhibition test (DI test), CYP 3A4; format: in vitro ADME; details: human liver microsomes 0.2 mg/ml, 20 min; for Direct inhibition rate (%) 3A4, second value: second of two values a/b (two 3A4 probes midazolam, testosterone; assignment not given)
# 3A4, sequence (P08684 whole entry): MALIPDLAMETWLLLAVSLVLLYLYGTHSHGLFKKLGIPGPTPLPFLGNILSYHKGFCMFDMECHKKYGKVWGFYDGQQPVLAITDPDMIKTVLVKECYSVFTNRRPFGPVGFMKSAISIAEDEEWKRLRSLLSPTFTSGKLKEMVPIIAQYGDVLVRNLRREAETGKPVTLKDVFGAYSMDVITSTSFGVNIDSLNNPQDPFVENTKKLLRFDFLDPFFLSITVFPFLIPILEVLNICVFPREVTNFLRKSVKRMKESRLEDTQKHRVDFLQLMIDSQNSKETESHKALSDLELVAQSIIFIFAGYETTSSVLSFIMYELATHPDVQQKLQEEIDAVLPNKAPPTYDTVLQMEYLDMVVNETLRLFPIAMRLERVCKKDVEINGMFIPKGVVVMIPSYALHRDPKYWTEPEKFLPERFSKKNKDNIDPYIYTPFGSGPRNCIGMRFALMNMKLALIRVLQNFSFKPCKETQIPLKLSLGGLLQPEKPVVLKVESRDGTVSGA
# Description: (§1) The system which was 100 μl of human liver microsomes (final concentration: 0.2 mg/ml) was used for direct inhibition incubation. The system contained NADPH (final concentration: 1 mM), 10 μl compound, positive inhibitor cocktail (ketoconazole, 10 μl, quinidine 10 μl, sulfaphenazole 100 μl, naphthoflavone 10 μl, tranylcypromine 1000 μl), negative control 10 μl DMSO and mixed probe substrate (midazolam 10 μl, testosterone 100 μl, dextromethorphan 10 μl, diclofenac 20 μl, phenacetin 100 μl, mephenytoin 100 μl). The reaction was stopped after the system was incubated for 20 min. The relative activity of the enzyme was calculated by measuring the relative amount of production of the metabolite.
# [1] = tested on: MM.1S nude mice xenografts; assay: Growth of MM.1S nude mice xenografts in vivo; design: species or system Balb/C nude mice; details: for TV (mm^3, mean) d0: d0 (at start of administration)
# Description: Balb/C nude mice (6 weeks, female, Beijing Huafukang Biotechnology Co., Ltd.) were purchased, and the animals were conditioned for about one week before the test. MM.1S cells were cultured in vitro, and the cells in logarithmic growth phase were resuspended in serum-free RPMI1640 medium to adjust the cell concentration. The cell suspension was subcutaneously injected into forefoot armpit of the Balb/C nude mice with a syringe, and each animal was injected with 150 μL (8.0×10^6/mouse). When the average tumor volume grew to about ˜150 mm^3, the animals were divided into 4 groups containing solvent control group, 50 mg/kg OTX-015 group, and 20 and 50 mg/kg compound 6 groups by the randomized block method and each group contained six animals. […] During the administration period, the tumor diameter was measured twice a week, the body weight of the animals was weighed, the living state of the animals was observed, and abnormal conditions were recorded.
# The formula for calculating tumor volume (TV): TV=½×a×b^2, where a and b represent length and width, respectively.
# The relative tumor volume (RTV) was calculated based on the measured results, and the calculation formula was: RTV=Vt/V0. Wherein V0 was the measured tumor volume at the time of administration by cage (ie, d0), and Vt was the tumor volume at each measurement.
# The relative tumor proliferation rate T/C (%) was calculated based on the measured results, and the calculation formula was as follows: T/C (%)=(TRTV/CRTV)×100%, TRTV: treatment group RTV; CRTV: negative control group RTV.
# CYP3A4 = CYP3A4 (Homo sapiens (Human), UniProt P08684); assay: Direct inhibition test (DI test), CYP 3A4; format: in vitro ADME; details: human liver microsomes 0.2 mg/ml, first of two values a/b (two 3A4 probes midazolam, testosterone; assignment not given), read-out: Direct inhibition rate (%) 3A4, first value
# CYP3A4, sequence (P08684 whole entry): as above
# Description: as §1
# CYP2D6 = CYP2D6 (Homo sapiens (Human), UniProt P10635); assay: Direct inhibition test (DI test), CYP 2D6; format: in vitro ADME; details: human liver microsomes 0.2 mg/ml, read-out: Direct inhibition rate (%) 2D6
# CYP2D6, sequence (P10635 whole entry): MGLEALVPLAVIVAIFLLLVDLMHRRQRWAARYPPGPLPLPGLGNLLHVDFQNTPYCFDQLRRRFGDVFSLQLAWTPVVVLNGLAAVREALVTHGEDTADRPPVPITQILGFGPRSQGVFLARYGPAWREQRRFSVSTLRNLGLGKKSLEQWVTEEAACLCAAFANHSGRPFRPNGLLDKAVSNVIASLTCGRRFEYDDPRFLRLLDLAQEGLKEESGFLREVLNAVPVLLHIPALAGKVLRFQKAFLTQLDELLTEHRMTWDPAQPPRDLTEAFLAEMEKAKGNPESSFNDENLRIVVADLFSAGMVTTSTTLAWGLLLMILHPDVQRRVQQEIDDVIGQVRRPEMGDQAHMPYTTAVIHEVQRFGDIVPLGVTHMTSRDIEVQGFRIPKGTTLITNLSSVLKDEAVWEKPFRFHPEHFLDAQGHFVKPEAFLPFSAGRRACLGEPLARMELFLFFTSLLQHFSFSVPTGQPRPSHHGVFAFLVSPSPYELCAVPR
# Description: as §1
# 2C9 = 2C9 (Homo sapiens (Human), UniProt P11712); assay: Direct inhibition test (DI test), CYP 2C9; format: in vitro ADME; details: human liver microsomes 0.2 mg/ml, 20 min
# 2C9, sequence (P11712 whole entry): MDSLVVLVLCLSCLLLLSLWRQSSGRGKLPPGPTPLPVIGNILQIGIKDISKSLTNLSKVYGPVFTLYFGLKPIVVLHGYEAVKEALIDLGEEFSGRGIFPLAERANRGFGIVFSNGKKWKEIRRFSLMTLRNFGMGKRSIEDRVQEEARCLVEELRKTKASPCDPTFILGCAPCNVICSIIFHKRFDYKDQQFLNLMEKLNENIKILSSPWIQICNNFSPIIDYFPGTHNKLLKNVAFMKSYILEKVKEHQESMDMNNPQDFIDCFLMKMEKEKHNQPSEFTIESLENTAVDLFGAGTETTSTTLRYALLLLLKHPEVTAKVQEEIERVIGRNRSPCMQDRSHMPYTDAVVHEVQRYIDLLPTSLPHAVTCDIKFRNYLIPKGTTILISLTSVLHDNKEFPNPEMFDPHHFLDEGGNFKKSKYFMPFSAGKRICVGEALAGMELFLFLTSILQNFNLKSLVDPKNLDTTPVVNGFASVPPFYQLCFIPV
# Description: as §1
# 1A2 = 1A2 (Homo sapiens (Human), UniProt P05177); assay: Direct inhibition test (DI test), CYP 1A2; format: in vitro ADME; details: human liver microsomes 0.2 mg/ml, 20 min
# 1A2, sequence (P05177 whole entry): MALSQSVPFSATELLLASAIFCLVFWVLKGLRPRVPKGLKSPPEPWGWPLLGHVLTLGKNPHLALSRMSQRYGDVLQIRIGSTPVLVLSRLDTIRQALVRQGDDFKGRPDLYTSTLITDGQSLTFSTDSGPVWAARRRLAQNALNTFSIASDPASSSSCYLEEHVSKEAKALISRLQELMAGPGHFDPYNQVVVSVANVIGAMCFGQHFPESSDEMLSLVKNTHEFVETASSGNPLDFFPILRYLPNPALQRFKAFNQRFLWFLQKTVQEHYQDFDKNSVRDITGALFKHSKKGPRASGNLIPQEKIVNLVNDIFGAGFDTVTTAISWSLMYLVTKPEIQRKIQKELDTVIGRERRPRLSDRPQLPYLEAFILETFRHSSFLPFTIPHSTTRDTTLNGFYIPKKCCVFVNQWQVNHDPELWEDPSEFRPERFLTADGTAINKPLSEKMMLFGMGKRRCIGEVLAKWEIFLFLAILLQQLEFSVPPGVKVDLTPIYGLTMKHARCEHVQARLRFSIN
# Description: as §1
# 2C19 = 2C19 (Homo sapiens (Human), UniProt P33261); assay: Direct inhibition test (DI test), CYP 2C19; format: in vitro ADME; details: human liver microsomes 0.2 mg/ml, 20 min
# 2C19, sequence (P33261 whole entry): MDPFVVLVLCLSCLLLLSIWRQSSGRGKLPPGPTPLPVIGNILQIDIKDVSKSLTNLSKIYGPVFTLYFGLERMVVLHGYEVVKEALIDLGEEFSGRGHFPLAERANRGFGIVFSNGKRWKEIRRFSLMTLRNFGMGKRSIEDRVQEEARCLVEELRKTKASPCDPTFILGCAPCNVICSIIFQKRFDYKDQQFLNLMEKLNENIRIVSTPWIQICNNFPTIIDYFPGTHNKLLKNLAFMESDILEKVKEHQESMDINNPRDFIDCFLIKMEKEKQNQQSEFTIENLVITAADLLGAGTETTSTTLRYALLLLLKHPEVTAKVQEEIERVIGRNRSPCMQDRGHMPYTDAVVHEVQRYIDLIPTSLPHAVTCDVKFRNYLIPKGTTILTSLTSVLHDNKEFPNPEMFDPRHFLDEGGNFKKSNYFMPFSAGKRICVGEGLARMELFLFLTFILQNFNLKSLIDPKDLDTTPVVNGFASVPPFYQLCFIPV
# Description: as §1
Structure (SMILES),"Direct inhibition rate (%) 3A4, first value (3A4; first of two values a/b (two 3A4 probes midazolam, testosterone; assignment not given)) [%]","Direct inhibition rate (%) 3A4, second value (3A4) [%]",RTV (mean SD) ([1]; 20 mg/kg qd/14 po),T/C (%) ([1]; 20 mg/kg qd/14 po),"TV (mm^3, mean) d0 ([1]; 20 mg/kg qd/14 po) [mm^3]","TV (mm^3, mean) d14 ([1]; 20 mg/kg qd/14 po) [mm^3]",RTV (mean SD) ([1]; 50 mg/kg qd/14 po),T/C (%) ([1]; 50 mg/kg qd/14 po),"TV (mm^3, mean) d0 ([1]; 50 mg/kg qd/14 po) [mm^3]","TV (mm^3, mean) d14 ([1]; 50 mg/kg qd/14 po) [mm^3]",inhibitory effect on the growth of MM.1S nude mice xenografts (in words) ([1]; oral administration of 50 mg/kg per day),inhibition at 20 min (CYP3A4) [%],inhibition at 20 min (CYP2D6) [%],Direct inhibition rate (%) 2C9 (2C9) [%],Direct inhibition rate (%) 1A2 (1A2),Direct inhibition rate (%) 2C19 (2C19) [%]
Cc1ccc(-n2nc(C(=O)N3CCN(C)CC3)nc2-c2ccc3c(c2)N(C2CCCC2)[C@H](C)C(=O)N3C)cc1 [Example 6],22,31,584.14,48.32,184.28,1024.45,417.16,34.51,185.34,660.39,significant inhibitory effect,–,–,–,–,–
Cc1ccc(-n2nc(C(=O)N3C[C@@H](C)N[C@@H](C)C3)nc2-c2ccc3c(c2)N(C2CCCC2)[C@H](C)C(=O)N3C)cc1 [Example 12],–,28,–,–,–,–,–,–,–,–,–,23,4,28,no,12
